# What was measured:
# [1] = system: isolated rat synaptosomes; assay: 6-OHDA-induced oxidative stress model, GSH level; format: cell-based; conditions: for GSH levels stored (protected): 6-OHDA-induced oxidative stress, against the toxic agent
# Experimental: The level of reduced glutathione was determined by measuring the non-protein SH-groups after precipitation of the proteins with trichloroacetic acid. After the incubation, synaptosomes were centrifuged at 400× g for 3 min. These diment were treated with 5% trichloroacetic acid and left for 10 min on ice. Samples were centrifuged at 8000× g for 10 min (2 °C). The supernatant was removed to determine the level of GSH and was stored at −20 °C. Immediately before the measurement, the samples were neutralized with 5 N NaOH.
# The presence of thiols in the supernatant was determined using Ellman’s reagent. The resulting yellow color was measured spectrophotometrically at λ = 412 nm.
# This in vitro model resembles the neurodegenerative processes occurring in PD. Dopamine metabolism and oxidation lead to the formation of ROS and reactive quinones. They induce dopamine neurotoxicity and neurodegeneration. The synaptosomes were incubated with 150 μmol 6-OHDA for 1 h.
# [2] = system: isolated rat brain synaptosomes; assay: Synaptosomal viability (MTT test), compounds applied alone; format: cell-based; conditions: 100 µmol; for relative synaptosomal vitality (RV): synaptosomal viability relative to caffeine (1) = 1; for decrease of synaptosomal viability: applied alone, against the control (untreated synaptosomes); for neurotoxicity on synaptosomes in words: single application, compared to the control and to caffeine
# Experimental: (§1) The synaptosomes and mitochondria were prepared as explained in [54, 55] with the help of a colloidal silicon solution (Percoll): 1. Preparation of 90% stock solution of Percoll. 2. Preparation of Percoll solutions with two concentrations, 16% and 10%. An amount of 4 ml of Percoll 16% and 10% were added in the tubes. 3. An amount of 90% Percoll (7.5% Percoll) was added to the sediment from the last centrifugation. The tubes were centrifuged for 20 min at 15,000× g at 4 °C, resulting in the formation of three layers. The lower layer contained mitochondria, the upper layer, lipids and the middle layer (between 16% and 10% Percoll), synaptosomes. The middle and the lower layers of each tube were harvested and buffer B with glucose was added. The mixture was centrifuged at 10,000× g for 20 min at 4 °C. After centrifugation, the sediment with the synaptosomes and mitochondria was mixed with buffer B with glucose.
# After the incubation, the synaptosomes were centrifuged three times at 15,000× g for 1 min. An MTT test was performed to determine synaptosomal vitality by the method described in the literature. […]
# isolated rat microsomes = assay: Fe2+/AA-induced lipid peroxidation model, MDA production; format: cell-based; conditions: 100 µmol, compared to the toxic agent
# Experimental: The microsomes were pre-incubated with the analyzed compounds for 15 min at 37 °C. The reaction was started with a solution of iron sulphate 20 μmol and ascorbic acid 0.5 mmol. […] After starting the reaction, the LPO and the MDA quantity was assessed [62].
# The quantity of the lipid peroxidation product MDA was assessed, using the method, described in the literature [62].
# [3] = system: isolated rat brain microsomes; assay: MDA production in isolated brain microsomes, compounds applied alone; format: cell-based; conditions: 100 µmol; for pro-oxidant effect (MDA production): applied alone, compared to the control (untreated microsomes); for neurotoxicity on microsomes in words: tested alone, compared to the control and to caffeine
# Experimental: The brain microsomes were prepared according to the procedure described in [61]. […] The homogenate was centrifugated at 17,000× g for 30 min. The pellet was suspended in 4 vol of the homogenization buffer and centrifuged at 17,000× g for a further period of 30 min. The supernatants from both centrifugations were combined (post-mitochondrial supernatant) and centrifuged at 100,000× g for 1 h. The pellet was resuspended in the above buffer and centrifuged at 100,000× g for 1 h. The resulting pellet was frozen in the buffer with glycerol.
# The quantity of the lipid peroxidation product MDA was assessed, using the method, described in the literature.
# Analysis of quantitative structure–neurotoxicity relationships employed the data from in vitro assessments of synaptosome viability (%) and MDA production in microsomal fractions (nmol/0.1 mg protein) as indicators for the neurotoxicity of compounds.
# [4] = molecular target: T1, human recombinant MAO-B enzyme (hMAOB) (Homo sapiens, UniProt P27338); assay: Monoamine oxidase B activity, fluorimetric Amplex Ultra Red assay, tyramine substrate; format: biochemical; conditions: 1 µmol, applied alone, against the control (pure hMAOB)
# T1 sequence (P27338 1-520): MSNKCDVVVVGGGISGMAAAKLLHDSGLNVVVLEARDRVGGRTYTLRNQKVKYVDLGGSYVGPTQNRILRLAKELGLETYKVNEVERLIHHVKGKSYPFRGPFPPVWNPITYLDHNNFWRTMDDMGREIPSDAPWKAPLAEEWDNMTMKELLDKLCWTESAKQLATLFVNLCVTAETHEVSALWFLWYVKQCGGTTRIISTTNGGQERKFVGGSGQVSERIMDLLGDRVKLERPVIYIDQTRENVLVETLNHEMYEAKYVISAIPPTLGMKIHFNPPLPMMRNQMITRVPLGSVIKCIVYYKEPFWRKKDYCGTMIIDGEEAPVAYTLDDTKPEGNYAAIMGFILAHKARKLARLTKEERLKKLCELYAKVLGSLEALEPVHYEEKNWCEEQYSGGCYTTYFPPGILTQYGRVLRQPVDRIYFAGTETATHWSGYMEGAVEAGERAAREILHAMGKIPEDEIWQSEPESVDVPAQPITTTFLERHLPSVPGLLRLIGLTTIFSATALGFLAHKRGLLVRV
# Experimental: Monoamine oxidase activity assay of recombinant human MAO-B was performed using a fluorimetric method by Amplex Ultra Redreagent [63]. Tyramine hydrochloride was used as substrate.
# The MAO-B activity was normalized as a percentage of the untreated control set as 100% and the results were expressed as mean values and standard deviation (±SD). Statistical analysis was performed by one-way analysis of variance (ANOVA) with a post hoc multiple comparisons procedure (Dunnet’s test) to assess the statistical differences in case of normal distribution. Values of p < 0.05, p < 0.01 and p < 0.001 were considered as statistically significant.
# [5] = system: isolated rat brain mitochondria; assay: MDA production in isolated brain mitochondria, compounds applied alone; format: cell-based; conditions: 100 µmol, against the control (untreated mitochondria)
# Experimental: The synaptosomes and mitochondria were prepared as explained in [54, 55] with the help of a colloidal silicon solution (Percoll): 1. […] An amount of 4 ml of Percoll 16% and 10% were added in the tubes. 3. An amount of 90% Percoll (7.5% Percoll) was added to the sediment from the last centrifugation. The tubes were centrifuged for 20 min at 15,000× g at 4 °C, resulting in the formation of three layers. The lower layer contained mitochondria, the upper layer, lipids and the middle layer (between 16% and 10% Percoll), synaptosomes. The middle and the lower layers of each tube were harvested and buffer B with glucose was added. The mixture was centrifuged at 10,000× g for 20 min at 4 °C. After centrifugation, the sediment with the synaptosomes and mitochondria was mixed with buffer B with glucose. […] After that, the tubes were maintained in a bath filled with boiling water. Finally, the tubes were transferred to an ice bath and butanol (0.4 mL) was poured into each tube. In the next stage, centrifugation of the tubes was carried out at 3500× g for 10 min. Following that, assessment of the total quantity of MDA shaped in each sample was carried out using a spectrophotometer (UV-Vis Split) to measure the supernatant’s absorbance at 532 nm. The mitochondria were incubated with 75 µmol t-BuOOH [59]. The quantity of the lipid peroxidation product MDA was assessed, using the method, described in the literature.
# [6] = system: isolated rat synaptosomes; assay: 6-OHDA-induced oxidative stress model, synaptosomal vitality; format: cell-based; conditions: against the toxic agent
# Experimental: After the incubation, the synaptosomes were centrifuged three times at 15,000× g for 1 min. An MTT test was performed to determine synaptosomal vitality by the method described in the literature [56]. […] The synaptosomes were incubated with 150 μmol 6-OHDA for 1 h [58].
# [7] = system: isolated rat brain mitochondria; assay: GSH level in isolated brain mitochondria, compounds applied alone; format: cell-based; conditions: 100 µmol, against the control (untreated mitochondria)
# Experimental: as §1
# The DNTB spectrophotometric technique explained in [60] was applied for GSH content measurement in brain mitochondria. Then, 0.04% DTNB was mixed with the mitochondrial suspensions (0.5 mg protein/mL) in 0.1 mol/L of phosphate buffers (pH 7.4). The development of the yellow color was read at 412 nm (spectrophotometer UV-Vis Split).
# MAO-B = molecular target: MAO-B; parameters: method as in PMID 19342233; conditions: MAO-B inhibitor activity; cited from earlier work
compound,measurement,setting,value
"NCCc1cc(O)c(O)cc1O [6-OHDA, 6-hydroxydopamine, reference compound]",decrease of GSH levels by the toxic agent,"[1]; 6-OHDA applied alone (150 μmol, 1 h), against the control (untreated synaptosomes)",50%
Cn1c(=O)c2c(nc(SCCC(=O)NN=Cc3ccccc3)n2C)n(C)c1=O [6a],relative synaptosomal vitality (RV),[2],0.743
Cn1c(=O)c2c(nc(SCCC(=O)NN=Cc3ccc([N+](=O)[O-])cc3)n2C)n(C)c1=O [6b],relative synaptosomal vitality (RV),[2],0.703
Cn1c(=O)c2c(nc(SCCC(=O)NN=Cc3c(Cl)cccc3Cl)n2C)n(C)c1=O [6c],relative synaptosomal vitality (RV),[2],0.689
Cn1c(=O)c2c(nc(SCCC(=O)NN=Cc3cccc(Cl)c3)n2C)n(C)c1=O [6d],relative synaptosomal vitality (RV),[2],0.730
Cn1c(=O)c2c(nc(SCCC(=O)NN=Cc3ccc(Br)cc3)n2C)n(C)c1=O [6e],relative synaptosomal vitality (RV),[2],0.743
Cn1c(=O)c2c(nc(SCCC(=O)NN=Cc3ccc(C(F)(F)F)cc3)n2C)n(C)c1=O [6f],relative synaptosomal vitality (RV),[2],0.757
COc1ccc(C=NNC(=O)CCSc2nc3c(c(=O)n(C)c(=O)n3C)n2C)cc1OC [6g],relative synaptosomal vitality (RV),[2],0.716
COc1cc(C=NNC(=O)CCSc2nc3c(c(=O)n(C)c(=O)n3C)n2C)cc(OC)c1OC [6h],relative synaptosomal vitality (RV),[2],0.703
COc1cc(C=NNC(=O)CCSc2nc3c(c(=O)n(C)c(=O)n3C)n2C)cc(OC)c1O [6i],relative synaptosomal vitality (RV),[2],0.743
COc1cc(C=NNC(=O)CCSc2nc3c(c(=O)n(C)c(=O)n3C)n2C)ccc1O [6j],relative synaptosomal vitality (RV),[2],0.730
"COc1cccc(C=NNC(=O)CCSc2nc3c(c(=O)n(C)c(=O)n3C)n2C)c1OC [6k, N′-(2,3-dimethoxybenzylidene)-3-(1,3,7-trimethyl-2,6-dioxo-2,3,6,7-tetrahydro-1H-purin-8-ylthio)propanehydrazide]",reduction of MDA production,isolated rat microsomes,38%
same,pro-oxidant effect (MDA production),[3],did not show any statistically significant pro-oxidant effect
same,neurotoxicity on microsomes in words,[3],lowest neurotoxicity
same,inhibition of hMAOB activity,[4],25%
same,change of MDA production,[5],did not change statistically significantly
same,protection of synaptosomal vitality,[6],20%
same,decrease of synaptosomal viability,[2],29%
same,neurotoxicity on synaptosomes in words,[2],lowest neurotoxicity
same,relative synaptosomal vitality (RV),[2],0.959
same,GSH levels stored (protected),[1],20%
"Cn1c(=O)c2c(nc(SCCC(=O)NN=Cc3ccccc3O)n2C)n(C)c1=O [6l, N′-(2-hydroxybenzylidene)-3-(1,3,7-trimethyl-2,6-dioxo-2,3,6,7-tetrahydro-1H-purin-8-ylthio)propanehydrazide]",reduction of MDA production,isolated rat microsomes,50%
same,pro-oxidant effect (MDA production),[3],did not show any statistically significant pro-oxidant effect
same,neurotoxicity on microsomes in words,[3],lowest neurotoxicity
same,inhibition of hMAOB activity,[4],30%
same,change of MDA production,[5],did not change statistically significantly
same,neurotoxic effect on GSH level,[7],did not show any statistically significant neurotoxic effect
same,protection of synaptosomal vitality,[6],36%
same,decrease of synaptosomal viability,[2],28%
same,neurotoxicity on synaptosomes in words,[2],lowest neurotoxicity
same,relative synaptosomal vitality (RV),[2],0.973
same,GSH levels stored (protected),[1],42%
Cc1cc(C)c(C=NNC(=O)CCSc2nc3c(c(=O)n(C)c(=O)n3C)n2C)c(C)c1 [6m],relative synaptosomal vitality (RV),[2],0.716
COc1cccc(C=NNC(=O)CCSc2nc3c(c(=O)n(C)c(=O)n3C)n2C)c1O [6n],relative synaptosomal vitality (RV),[2],0.689
Cn1c(=O)c2c(nc(SCCC(=O)NN=Cc3cccc([N+](=O)[O-])c3)n2C)n(C)c1=O [6o],relative synaptosomal vitality (RV),[2],0.757
"Cn1c(=O)c2c(ncn2C)n(C)c1=O [compound 1, caffeine, reference compound]",pro-oxidant effect (MDA production),[3],did not show any statistically significant pro-oxidant effect
same,neurotoxicity on microsomes in words,[3],lowest neurotoxicity
same,change of MDA production,[5],did not change statistically significantly
same,Ki,MAO-B,3.6 mM
same,decrease of synaptosomal viability,[2],26%
same,neurotoxicity on synaptosomes in words,[2],lowest neurotoxicity
same,GSH levels stored (protected),[1],30%

# — PMC9414684, “Quantitative Structure–Neurotoxicity Assessment and In Vitro Evaluation of Neuroprotective and MAO-B Inhibitory Activities of Series N′-substituted 3-(1,3,7-trimethyl-xanthin-8-ylthio)propanehydrazides” (Molecules, 2022)
